For data set [1], the target named is T1, 5-HT2C (Homo sapiens, UniProt P28335).
T1 construct: purchased NIMH Psychoactive Drug Screening Program (PDSP)
T1 sequence (P28335 33-458): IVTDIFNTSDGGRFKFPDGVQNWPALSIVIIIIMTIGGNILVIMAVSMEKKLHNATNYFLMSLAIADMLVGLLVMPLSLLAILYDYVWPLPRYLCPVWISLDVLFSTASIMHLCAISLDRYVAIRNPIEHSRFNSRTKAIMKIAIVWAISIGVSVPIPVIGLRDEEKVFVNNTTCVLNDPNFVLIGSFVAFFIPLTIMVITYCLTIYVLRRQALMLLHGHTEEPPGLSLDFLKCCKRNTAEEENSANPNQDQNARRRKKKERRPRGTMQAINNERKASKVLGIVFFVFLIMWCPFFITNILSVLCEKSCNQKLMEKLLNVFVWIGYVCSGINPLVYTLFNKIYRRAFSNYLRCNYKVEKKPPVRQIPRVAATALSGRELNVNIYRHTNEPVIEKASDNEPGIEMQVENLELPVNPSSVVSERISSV
The data set can be described thus: PDSP primary binding 5-HT2C. Particulars: 1.5 h; primary binding, 10,000 nM; last figure of the line = mean of the 4 before it; read-out: 5-HT2C, PDSP raw data, mean. How it is done:
(§1) To determine if any off-target receptor-binding effects are present, all the novel ligands were sent to the National Institute of Mental Health (NIMH), Psychoactive Drug Screening Program (PDSP). The ligands were screened over a panel of 47 receptors, ion channels, and transporters to determine any other possible interactions with […]. The hERG-binding was also determined. […] No binding of the test compounds to calcium channels was observed. […] It is necessary to screen the compounds for hERG-binding during the early process of drug discovery. The unintentional binding of many drugs to hERG can cause blockade of hERG K+ channels in the heart, which can cause many side effects including cardiac arrhythmias and sudden death. […] All of the α5 imidazodiazepines were tested for hERG-binding.
(§2) The NIMH PDSP assay protocol book [https://kidbdev.med.unc.edu/databases/PDSP%20Protocols%20II%202013-03-28.pdf accessed on 23 April 2023]. describes the protocols for primary and secondary radio-ligand binding assays. These assays were carried out in a final volume of 125 µL per well in the appropriate binding buffer.
(§3) The binding of a ligand to a receptor, ion channel, or transporter was determined in the […] of 10 µM of the appropriate reference compound. […] Plates were incubated in the dark for 90 min at rt, and the reactions were stopped by vacuum filtration onto 0.3% polyethyleneimine (PEI) soaked 96-well filter mats using a 96-well Filtermateharvester. This was followed by three washes with cold PBS buffer. Radioactivity was then counted on a Microbeta counter. Nonlinear regression was used to analyze the data with N = 6 replicates.

Data set [2] has as its system GABAA. The data set is described as follows: PDSP primary binding GABAA. Particulars: primary binding, 10,000 nM; last figure of the line = mean of the 4 before it; some tables list it twice. On the procedure: as §1, §2, §3
Data set [3] has as its target T2, M3D (Homo sapiens, UniProt P20309, A239G/Y149C).
T2 construct: purchased NIMH Psychoactive Drug Screening Program (PDSP)
The data set is described as follows: PDSP primary binding M3D. The conditions noted are these: primary binding, 10,000 nM; last figure of the line = mean of the 4 before it; read-out: M3D, PDSP raw data, mean. How it is done:
as §1, §2, §3

Data set [4] concerns the target T3, DAT (Homo sapiens, UniProt Q01959).
T3 construct: purchased NIMH Psychoactive Drug Screening Program (PDSP)
The data set is described as follows: PDSP primary binding DAT. Particulars: 1.5 h, primary binding, 10,000 nM; last figure of the line = mean of the 4 before it; some tables list DAT twice; read-out: DAT, PDSP raw data, mean. How it is done:
as §1, §2, §3

The target in data set [5] is T4, SERT (Homo sapiens, UniProt P31645).
T4 construct: purchased NIMH Psychoactive Drug Screening Program (PDSP)
The data set can be described thus: PDSP primary binding SERT. Particulars: primary binding, 10,000 nM; last figure of the line = mean of the 4 before it; some tables list SERT twice; read-out: SERT, PDSP raw data, mean. On the procedure: as §1, §2, §3

Data set [6] concerns the target T5, hERG K+ channel (Homo sapiens, UniProt Q12809).
T5 construct: purchased NIMH Psychoactive Drug Screening Program (PDSP)
The data set is described as follows: PDSP radioligand binding at hERG. The conditions noted are these: human; at 10,000 nM; N = 5; read-out: Binding Affinity at hERG % Inhibition (Primary Binding). How it is done: as §1, §2, §3
In general terms: Block of hERG is tested as a sign of cardiac risk.

The target in data set [7] is T6, Alpha2Beta4 (Rattus norvegicus, UniProt P12389+P12392).
T6 construct: purchased NIMH Psychoactive Drug Screening Program (PDSP)
The data set can be described thus: PDSP primary binding Alpha2Beta4. The conditions noted are these: primary binding, 10,000 nM; last figure of the line = mean of the 4 before it; read-out: Alpha2Beta4, PDSP raw data, mean. On the procedure:
as §1, §2, §3

Data set [8] has as its target T7, NOP (Homo sapiens, UniProt P41146).
T7 construct: purchased NIMH Psychoactive Drug Screening Program (PDSP)
The data set is described as follows: PDSP primary binding NOP. Particulars: primary binding, 10,000 nM; last figure of the line = mean of the 4 before it. On the procedure:
as §1, §2, §3

The target of data set [9] is T8, OT (Homo sapiens, UniProt P30559).
T8 construct: purchased NIMH Psychoactive Drug Screening Program (PDSP)
T8 sequence (P30559 1-389): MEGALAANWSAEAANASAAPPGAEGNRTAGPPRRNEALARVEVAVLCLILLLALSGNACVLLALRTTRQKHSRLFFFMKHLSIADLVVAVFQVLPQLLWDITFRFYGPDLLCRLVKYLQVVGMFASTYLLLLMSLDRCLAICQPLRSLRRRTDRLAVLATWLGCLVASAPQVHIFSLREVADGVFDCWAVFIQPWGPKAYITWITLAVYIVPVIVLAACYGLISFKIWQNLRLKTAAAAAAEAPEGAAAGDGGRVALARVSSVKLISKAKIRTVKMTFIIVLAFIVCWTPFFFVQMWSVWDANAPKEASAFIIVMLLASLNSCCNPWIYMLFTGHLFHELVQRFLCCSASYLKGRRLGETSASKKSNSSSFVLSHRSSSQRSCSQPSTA
The data set can be described thus: PDSP primary binding OT (Oxytocin). Particulars: primary binding, 10,000 nM; last figure of the line = mean of the 4 before it; some tables list it twice; read-out: OT (also Oxytocin), PDSP raw data, mean. How it is done: as §1, §2, §3

T3 sequence (Q01959 whole entry): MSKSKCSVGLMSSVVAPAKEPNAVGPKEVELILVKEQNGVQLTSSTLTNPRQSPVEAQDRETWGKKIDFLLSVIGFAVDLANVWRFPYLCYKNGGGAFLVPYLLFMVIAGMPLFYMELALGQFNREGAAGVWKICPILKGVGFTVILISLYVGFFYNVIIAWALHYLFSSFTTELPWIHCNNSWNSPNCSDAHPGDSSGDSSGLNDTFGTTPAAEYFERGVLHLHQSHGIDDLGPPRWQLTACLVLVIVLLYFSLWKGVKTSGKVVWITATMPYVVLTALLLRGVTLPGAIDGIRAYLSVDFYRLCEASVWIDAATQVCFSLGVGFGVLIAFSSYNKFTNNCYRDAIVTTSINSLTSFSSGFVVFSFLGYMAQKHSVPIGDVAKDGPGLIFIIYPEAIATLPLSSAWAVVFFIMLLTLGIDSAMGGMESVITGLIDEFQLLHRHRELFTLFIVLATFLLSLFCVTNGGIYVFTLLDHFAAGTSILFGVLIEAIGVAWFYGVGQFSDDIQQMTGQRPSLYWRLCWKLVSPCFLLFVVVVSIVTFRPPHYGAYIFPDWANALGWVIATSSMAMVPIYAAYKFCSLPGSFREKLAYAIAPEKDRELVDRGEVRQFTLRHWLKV
T4 sequence (P31645 whole entry): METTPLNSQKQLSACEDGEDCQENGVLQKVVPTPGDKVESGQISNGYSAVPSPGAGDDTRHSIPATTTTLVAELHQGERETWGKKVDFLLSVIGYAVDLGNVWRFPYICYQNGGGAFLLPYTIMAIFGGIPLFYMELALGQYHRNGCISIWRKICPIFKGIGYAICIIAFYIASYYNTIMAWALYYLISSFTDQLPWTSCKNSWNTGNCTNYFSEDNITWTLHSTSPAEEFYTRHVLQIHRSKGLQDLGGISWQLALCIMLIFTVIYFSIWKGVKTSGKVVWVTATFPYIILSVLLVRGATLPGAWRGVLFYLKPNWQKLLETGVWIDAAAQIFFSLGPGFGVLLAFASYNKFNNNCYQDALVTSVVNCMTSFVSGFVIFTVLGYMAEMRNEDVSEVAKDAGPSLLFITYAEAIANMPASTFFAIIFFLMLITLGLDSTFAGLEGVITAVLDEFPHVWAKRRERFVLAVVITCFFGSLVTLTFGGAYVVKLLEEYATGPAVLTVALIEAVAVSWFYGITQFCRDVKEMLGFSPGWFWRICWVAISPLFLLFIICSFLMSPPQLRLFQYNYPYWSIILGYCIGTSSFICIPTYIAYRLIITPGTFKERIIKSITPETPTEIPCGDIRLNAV
T5 sequence (Q12809 whole entry): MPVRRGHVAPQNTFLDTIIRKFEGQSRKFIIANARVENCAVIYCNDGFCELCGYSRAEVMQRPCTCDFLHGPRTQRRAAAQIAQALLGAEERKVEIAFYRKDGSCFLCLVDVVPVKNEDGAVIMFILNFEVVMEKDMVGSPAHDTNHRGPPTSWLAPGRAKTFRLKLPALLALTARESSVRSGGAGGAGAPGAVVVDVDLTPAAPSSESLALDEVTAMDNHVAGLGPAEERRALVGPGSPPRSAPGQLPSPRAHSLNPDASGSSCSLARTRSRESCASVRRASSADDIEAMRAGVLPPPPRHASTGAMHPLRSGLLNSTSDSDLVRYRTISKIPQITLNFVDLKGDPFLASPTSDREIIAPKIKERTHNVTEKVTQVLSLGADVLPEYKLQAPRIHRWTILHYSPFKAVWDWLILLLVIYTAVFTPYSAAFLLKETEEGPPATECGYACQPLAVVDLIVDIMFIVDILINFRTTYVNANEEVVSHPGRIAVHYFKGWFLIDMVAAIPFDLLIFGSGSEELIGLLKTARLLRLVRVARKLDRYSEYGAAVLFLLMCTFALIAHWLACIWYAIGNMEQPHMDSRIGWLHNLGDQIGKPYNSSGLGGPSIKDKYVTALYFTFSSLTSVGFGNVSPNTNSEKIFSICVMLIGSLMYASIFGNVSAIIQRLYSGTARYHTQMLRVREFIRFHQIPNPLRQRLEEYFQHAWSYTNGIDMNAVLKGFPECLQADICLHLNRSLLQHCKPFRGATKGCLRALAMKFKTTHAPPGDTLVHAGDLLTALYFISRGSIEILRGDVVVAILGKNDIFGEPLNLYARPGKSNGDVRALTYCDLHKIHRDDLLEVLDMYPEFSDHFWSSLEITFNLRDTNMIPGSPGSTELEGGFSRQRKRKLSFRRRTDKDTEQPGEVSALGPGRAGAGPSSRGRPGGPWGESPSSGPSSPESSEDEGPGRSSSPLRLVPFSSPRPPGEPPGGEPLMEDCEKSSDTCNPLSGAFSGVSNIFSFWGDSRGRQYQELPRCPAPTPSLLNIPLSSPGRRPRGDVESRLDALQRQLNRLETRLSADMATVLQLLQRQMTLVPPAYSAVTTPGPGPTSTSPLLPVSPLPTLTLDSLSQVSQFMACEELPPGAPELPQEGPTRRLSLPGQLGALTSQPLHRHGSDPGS
T6 sequence (P12389 28-511): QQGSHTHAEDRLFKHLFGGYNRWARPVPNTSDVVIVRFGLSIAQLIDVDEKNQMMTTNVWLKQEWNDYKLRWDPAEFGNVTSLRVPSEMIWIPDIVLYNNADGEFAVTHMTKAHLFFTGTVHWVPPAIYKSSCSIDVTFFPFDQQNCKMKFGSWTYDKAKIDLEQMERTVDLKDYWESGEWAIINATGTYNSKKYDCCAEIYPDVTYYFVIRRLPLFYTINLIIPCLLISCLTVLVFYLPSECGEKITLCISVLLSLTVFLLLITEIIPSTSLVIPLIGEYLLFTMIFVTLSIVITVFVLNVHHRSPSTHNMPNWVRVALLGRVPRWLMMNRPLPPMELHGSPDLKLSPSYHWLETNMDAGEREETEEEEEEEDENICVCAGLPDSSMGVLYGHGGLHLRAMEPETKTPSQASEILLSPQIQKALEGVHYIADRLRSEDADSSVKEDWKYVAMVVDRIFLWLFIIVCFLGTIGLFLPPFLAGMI
T6 sequence (P12392 21-495): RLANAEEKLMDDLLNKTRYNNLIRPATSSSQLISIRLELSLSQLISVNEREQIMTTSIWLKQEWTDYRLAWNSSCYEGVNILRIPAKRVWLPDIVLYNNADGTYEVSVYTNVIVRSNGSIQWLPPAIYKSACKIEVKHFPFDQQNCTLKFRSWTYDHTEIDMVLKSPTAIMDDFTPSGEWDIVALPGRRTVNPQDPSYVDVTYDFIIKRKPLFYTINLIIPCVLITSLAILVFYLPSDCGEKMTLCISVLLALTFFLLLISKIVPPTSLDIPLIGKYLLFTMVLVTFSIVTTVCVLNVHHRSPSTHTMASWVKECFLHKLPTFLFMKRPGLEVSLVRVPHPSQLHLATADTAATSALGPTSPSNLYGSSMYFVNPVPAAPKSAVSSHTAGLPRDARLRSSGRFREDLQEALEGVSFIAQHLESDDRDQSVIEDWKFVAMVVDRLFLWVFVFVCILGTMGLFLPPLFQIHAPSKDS
T2 sequence (P20309 whole entry Y149C/A239G): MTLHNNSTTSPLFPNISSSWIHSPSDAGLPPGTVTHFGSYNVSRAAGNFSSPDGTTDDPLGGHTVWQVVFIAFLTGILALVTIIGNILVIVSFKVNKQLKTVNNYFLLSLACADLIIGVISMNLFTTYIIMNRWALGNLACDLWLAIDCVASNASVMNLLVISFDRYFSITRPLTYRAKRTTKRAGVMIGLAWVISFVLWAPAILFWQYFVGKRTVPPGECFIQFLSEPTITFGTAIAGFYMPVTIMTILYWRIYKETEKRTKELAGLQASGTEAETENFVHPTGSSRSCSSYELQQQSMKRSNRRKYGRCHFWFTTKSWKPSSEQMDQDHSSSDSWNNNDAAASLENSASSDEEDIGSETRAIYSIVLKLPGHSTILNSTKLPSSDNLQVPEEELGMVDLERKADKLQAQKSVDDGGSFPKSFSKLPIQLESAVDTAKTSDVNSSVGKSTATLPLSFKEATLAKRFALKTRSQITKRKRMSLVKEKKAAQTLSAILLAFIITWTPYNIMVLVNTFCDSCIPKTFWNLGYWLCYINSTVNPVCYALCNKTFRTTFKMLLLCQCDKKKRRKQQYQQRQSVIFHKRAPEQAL
T7 sequence (P41146 whole entry): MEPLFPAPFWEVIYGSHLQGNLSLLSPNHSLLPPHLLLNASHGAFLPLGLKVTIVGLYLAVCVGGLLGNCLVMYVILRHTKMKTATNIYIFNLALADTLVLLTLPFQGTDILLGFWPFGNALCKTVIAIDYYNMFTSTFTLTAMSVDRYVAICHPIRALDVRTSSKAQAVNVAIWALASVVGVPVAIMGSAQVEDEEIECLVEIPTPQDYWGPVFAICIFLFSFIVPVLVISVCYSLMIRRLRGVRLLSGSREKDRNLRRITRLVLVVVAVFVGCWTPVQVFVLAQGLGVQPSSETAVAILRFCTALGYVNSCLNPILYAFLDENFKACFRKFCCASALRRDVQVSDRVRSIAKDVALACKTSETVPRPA

`C[C@H]1N=C(c2ccccc2F)c2cc(-c3ccccc3)ccc2-n2cnc(C(=O)N(C)C)c21` [Compound 5, (R)-6-(2′-Fluorophenyl)-N,N,4-trimethyl-8-phenyl-4H-benzo[f]imidazo[1,5-a][1,4]diazepine-3-carboxamide]: the inhibition at 10 µM in [1] is 18%; in data set [3], 4.84%; in data set [4], 29.7%; in data set [5] it was -9.27%; in [7] it was 4.82%. The “GABAA, PDSP raw data, mean” value in data set [2] is -4.01%. Moreover, in data set [6], the inhibition at 90 min, 10000 nM is -0.48 ± 4.52%.

As for `C#Cc1ccc2c(c1)C(c1ccccc1Cl)=N[C@H](C)c1c(C(=O)NC)ncn1-2` [Compound 21, (R)-6-(2′-Chlorophenyl)-8-ethynyl-N,4-dimethyl-4H-benzo[f]imidazo[1,5-a][1,4]diazepine-3-carboxamide], the inhibition at 10 µM was -14.2% in data set [1]; 0.48% in [3]; 9.24% in data set [5]; 7.67% in data set [7]; -0.63% in data set [9]. The “GABAA, PDSP raw data, mean” value in data set [2] was determined as 12.76%. In data set [8], the “NOP, PDSP raw data, mean” value is on record as -0.1%. For the same compound, in [6], the inhibition at 90 min, 10000 nM was -5.73 ± 11.1%.

As for `C#Cc1ccc2c(c1)C(c1ccccn1)=N[C@@H](C)c1c(C(=O)NC)ncn1-2` [Compound 23, (S)-8-Ethynyl-N,4-dimethyl-6-(pyridin-2′-yl)-4H-benzo[f]imidazo[1,5-a][1,4]diazepine-3-carboxamide], the inhibition at 10 µM in data set [1] was -10.1%; in [3], 9.08%; in data set [5], -7.1%; in [7], 4.5%; in [9], 47.4%. In addition, the “GABAA, PDSP raw data, mean” value in data set [2] came to 23.24%. In data set [6], the inhibition at 90 min, 10000 nM was -4.24 ± 3.47%.

Take `C#Cc1ccc2c(c1)C(c1ccccc1Cl)=N[C@H](C)c1c(C(=O)N(C)CC)ncn1-2` [Compound 29]: the inhibition at 10 µM was -10.7% in data set [1]; 6.78% in [3]; 6.07% in data set [5]; 3.06% in data set [7]; 41.8% in [9]. For the same compound, the “GABAA, PDSP raw data, mean” value in [2] worked out at 25.77%. In addition, the inhibition at 90 min, 10000 nM in data set [6] was -1.55 ± 10.1%.

Turning to `C#Cc1ccc2c(c1)C(c1ccccn1)=N[C@@H](C)c1c(C(=O)N(C)C)ncn1-2` [Compound 31, (S)-8-Ethynyl-N,N,4-trimethyl-6-(pyridin-2′-yl)-4H-benzo[f]imidazo[1,5-a][1,4]diazepine-3-carboxamide], the inhibition at 10 µM in [1] is -12.3%; in [3], 6.59%; in data set [4], 15.5%; in [5], 4.04%; in data set [7], 6.58%; in [9] it was 23.7%. Moreover, the “GABAA, PDSP raw data, mean” value in data set [2] is recorded as 9.39%. Moreover, the “NOP, PDSP raw data, mean” value in [8] is recorded as -14.49%. The inhibition at 90 min, 10000 nM in data set [6] turned out to be 0.95 ± 2.21%.

`C#Cc1ccc2c(c1)C(c1ccccc1F)=N[C@H](C)c1c(C(=S)N(C)C)ncn1-2` [Compound 33, (R)-8-Ethynyl-6-(2′-fluorophenyl)-N,N,4-trimethyl-4H-benzo[f]imidazo[1,5-a][1,4]diazepine-3-carbothioamide]: the inhibition at 10 µM was 18% in data set [1]; 4.84% in data set [3]; 29.7% in data set [4]; -9.27% in data set [5]; 4.82% in data set [7]. Besides, the “GABAA, PDSP raw data, mean” value in [2] is listed as -4.01%. Moreover, the inhibition at 90 min, 10000 nM in [6] was -4.4 ± 4.52%.

Turning to `CCc1noc(-c2ncn3c2[C@@H](C)N=C(c2ccccc2F)c2cc(-c4ccccc4)ccc2-3)n1` [Compound 35, (R)-3-Ethyl-5-(6-(2′-fluorophenyl)-4-methyl-8-phenyl-4H-benzo[f]imidazo[1,5-a][1,4]diazepin-3-yl)-1,2,4-oxadiazole], the inhibition at 10 µM was determined as 19.7% in data set [1]; 4.49% in [3]; 49.4% in [4]; 17.2% in data set [5]; 10.7% in data set [7]; 6.27% in [9]. In addition, in data set [2], the “GABAA, PDSP raw data, mean” value came out at 16.02%. In data set [6], the inhibition at 90 min, 10000 nM stood at 37.3 ± 5.97%.

For `CCc1noc(-c2ncn3c2[C@@H](C)N=C(c2ccccc2F)c2cc(Cl)ccc2-3)n1` [Compound 36, (R)-5-(8-Chloro-6-(2′-fluorophenyl)-4-methyl-4H-benzo[f]imidazo[1,5-a][1,4]diazepin-3-yl)-3-ethyl-1,2,4-oxadiazole], the inhibition at 10 µM in data set [1] is 13.9%; in [3], -2.01%; in data set [4], 11%; in data set [5], 3.09%; in data set [7] it was 10.9%; in data set [9], 14.7%. Besides, in data set [2], the “GABAA, PDSP raw data, mean” value was 13.12%.

For the compound `CCc1noc(-c2ncn3c2CN=C(c2ccccc2F)c2cc(C4CC4)ccc2-3)n1` [Compound 44, 5-(8-Cyclopropyl-6-(2′-fluorophenyl)-4H-benzo[f]imidazo[1,5-a][1,4]diazepin-3-yl)-3-ethyl-1,2,4-oxadiazole], the inhibition at 10 µM in data set [1] was determined as 24.7%; in data set [3], 11.8%; in data set [4], 37.4%; in [5], 7.2%; in [7], 8.23%; in [9], 15.4%. Besides, the “GABAA, PDSP raw data, mean” value in data set [2] worked out at 11.92%. In data set [6], the inhibition at 90 min, 10000 nM amounted to 33.2 ± 12.6%.

In the case of `CCc1noc(-c2ncn3c2[C@@H](C)N=C(c2ccccc2F)c2cc(C4CC4)ccc2-3)n1` [Compound 46, (R)-5-(8-Cyclopropyl-6-(2′-fluorophenyl)-4-methyl-4H-benzo[f]imidazo[1,5-a][1,4]diazepin-3-yl)-3-ethyl-1,2,4-oxadiazole], the inhibition at 10 µM in data set [1] was 3.53%; in [3] it was 9.97%; in data set [4], 22%; in data set [5], -3.28%; in data set [7], 6.41%; in data set [9], 11.4%. The “GABAA, PDSP raw data, mean” value in data set [2] is 19.52%. In addition, in data set [8], the “NOP, PDSP raw data, mean” value turned out to be 7.5%. Besides, in data set [6], the inhibition at 90 min, 10000 nM was found to be 4.34 ± 3.92%.

Source of the values: article PMC10303271, “Synthesis and Receptor Binding Studies of α5 GABAAR Selective Novel Imidazodiazepines Targeted for Psychiatric and Cognitive Disorders” (Molecules, 2023).
